The test system of assay [1] is Glutamate receptor ionotropic, NMDA 2B (Homo sapiens), Q13224 [A652T]. The assay can be described thus: Binding affinity to NR2B receptor M3c A652T mutant.
In assay [2] the test system is Glutamate receptor ionotropic, NMDA 2B (Homo sapiens), Q13224 [T233A]. Briefly: Binding affinity to NR2B receptor ATD T233A mutant.
For assay [3], the system named is Glutamate receptor ionotropic, NMDA 2B (Homo sapiens), Q13224 [F642A]. Briefly: Inhibition of NR2B receptor M3c F642A mutant expressed in Xenopus oocytes assessed as NMDA current at 0.5 mM relative to control. The format is cell-based. As to conditions: Oocyte.
Assay [4] has as its system Glutamate receptor ionotropic, NMDA 2B (Homo sapiens), Q13224 [V640A]. Briefly: Inhibition of NR2B receptor M3c V640A mutant expressed in Xenopus oocytes assessed as NMDA current at 0.5 mM relative to control. The format is cell-based. The following applies: Oocyte.
Assay [5] can be described thus: Ratio of Kapp for wild type NR2B receptor to Kapp for NR2B receptor L643C/T647A mutant.
Assay [6] in a line: Binding affinity to NR2B receptor […]/T103A mutant.
Assay [7] is described as follows: Ratio of Kapp for wild type NR2B receptor to Kapp for NR2B receptor T647A/T103A mutant.
For assay [8], the system named is Glutamate receptor ionotropic, NMDA 2B (Homo sapiens), Q13224 [F176A]. The assay can be described thus: Inhibition of NR2B receptor ATD F176A mutant expressed in Xenopus oocytes assessed as NMDA current at 0.5 mM relative to control. As to conditions: Oocyte. It counts as cell-based.
Assay [9] has as its system Glutamate receptor ionotropic, NMDA 2B (Homo sapiens), Q13224 [S645A,T103A]. The assay can be described thus: Binding affinity to NR2B receptor S645A/T103A mutant.
Assay [10] relates to Glutamate receptor ionotropic, NMDA 2B (Homo sapiens), Q13224 [N542A]. The assay can be described thus: Inhibition of NR2B receptor Pre-M1 N542A mutant expressed in Xenopus oocytes assessed as NMDA current at 0.5 mM relative to control. It counts as cell-based. The following applies: Oocyte.
Assay [11] relates to Glutamate receptor ionotropic, NMDA 2B (Homo sapiens), Q13224 [F550A]. Briefly: Inhibition of NR2B receptor Pre-M1 F550A mutant expressed in Xenopus oocytes assessed as NMDA current at 0.5 mM relative to control. The format is cell-based. As to conditions: Oocyte.
Assay [12] can be described thus: Ratio of Kapp for wild type NR2B receptor to Kapp for NR2B receptor M3c A652T mutant.
The test system of assay [13] is Glutamate receptor ionotropic, NMDA 2B (Homo sapiens), Q13224 [S645A]. Briefly: Binding affinity to NR2B receptor M3c S645A mutant.
Assay [14] is described as follows: Ratio of Kapp for wild type NR2B receptor to Kapp for NR2B receptor L643A/T647A mutant.
Assay [15] can be described thus: Ratio of Kapp for wild type NR2B receptor to Kapp for NR2B receptor T103A/K234A mutant.
Assay [16] in a line: Ratio of Kapp for wild type NR2B receptor to Kapp for NR2B receptor M3c L643A mutant.
Assay [17] is described as follows: Ratio of Kapp for wild type NR2B receptor to Kapp for NR2B receptor ATD K234A mutant.
Assay [18] has as its system Glutamate receptor ionotropic, NMDA 2B (Homo sapiens), Q13224 [L643A,S645A]. Briefly: Binding affinity to NR2B receptor L643A/S645A mutant.
The subject of assay [19] is Glutamate receptor ionotropic, NMDA 2B (Homo sapiens), Q13224 [T233A]. Briefly: Inhibition of NR2B receptor ATD T233A mutant expressed in Xenopus oocytes assessed as NMDA current at 0.5 mM relative to control. The format is cell-based. The following applies: Oocyte.
Assay [20] can be described thus: Ratio of Kapp for wild type NR2B receptor to Kapp for NR2B receptor M3c T647A mutant.

Each structure is given as a SMILES string.

Glutamate receptor ionotropic, NMDA 2B (Homo sapiens), Q13224 [T233A], sequence (Q13224 whole entry T233A): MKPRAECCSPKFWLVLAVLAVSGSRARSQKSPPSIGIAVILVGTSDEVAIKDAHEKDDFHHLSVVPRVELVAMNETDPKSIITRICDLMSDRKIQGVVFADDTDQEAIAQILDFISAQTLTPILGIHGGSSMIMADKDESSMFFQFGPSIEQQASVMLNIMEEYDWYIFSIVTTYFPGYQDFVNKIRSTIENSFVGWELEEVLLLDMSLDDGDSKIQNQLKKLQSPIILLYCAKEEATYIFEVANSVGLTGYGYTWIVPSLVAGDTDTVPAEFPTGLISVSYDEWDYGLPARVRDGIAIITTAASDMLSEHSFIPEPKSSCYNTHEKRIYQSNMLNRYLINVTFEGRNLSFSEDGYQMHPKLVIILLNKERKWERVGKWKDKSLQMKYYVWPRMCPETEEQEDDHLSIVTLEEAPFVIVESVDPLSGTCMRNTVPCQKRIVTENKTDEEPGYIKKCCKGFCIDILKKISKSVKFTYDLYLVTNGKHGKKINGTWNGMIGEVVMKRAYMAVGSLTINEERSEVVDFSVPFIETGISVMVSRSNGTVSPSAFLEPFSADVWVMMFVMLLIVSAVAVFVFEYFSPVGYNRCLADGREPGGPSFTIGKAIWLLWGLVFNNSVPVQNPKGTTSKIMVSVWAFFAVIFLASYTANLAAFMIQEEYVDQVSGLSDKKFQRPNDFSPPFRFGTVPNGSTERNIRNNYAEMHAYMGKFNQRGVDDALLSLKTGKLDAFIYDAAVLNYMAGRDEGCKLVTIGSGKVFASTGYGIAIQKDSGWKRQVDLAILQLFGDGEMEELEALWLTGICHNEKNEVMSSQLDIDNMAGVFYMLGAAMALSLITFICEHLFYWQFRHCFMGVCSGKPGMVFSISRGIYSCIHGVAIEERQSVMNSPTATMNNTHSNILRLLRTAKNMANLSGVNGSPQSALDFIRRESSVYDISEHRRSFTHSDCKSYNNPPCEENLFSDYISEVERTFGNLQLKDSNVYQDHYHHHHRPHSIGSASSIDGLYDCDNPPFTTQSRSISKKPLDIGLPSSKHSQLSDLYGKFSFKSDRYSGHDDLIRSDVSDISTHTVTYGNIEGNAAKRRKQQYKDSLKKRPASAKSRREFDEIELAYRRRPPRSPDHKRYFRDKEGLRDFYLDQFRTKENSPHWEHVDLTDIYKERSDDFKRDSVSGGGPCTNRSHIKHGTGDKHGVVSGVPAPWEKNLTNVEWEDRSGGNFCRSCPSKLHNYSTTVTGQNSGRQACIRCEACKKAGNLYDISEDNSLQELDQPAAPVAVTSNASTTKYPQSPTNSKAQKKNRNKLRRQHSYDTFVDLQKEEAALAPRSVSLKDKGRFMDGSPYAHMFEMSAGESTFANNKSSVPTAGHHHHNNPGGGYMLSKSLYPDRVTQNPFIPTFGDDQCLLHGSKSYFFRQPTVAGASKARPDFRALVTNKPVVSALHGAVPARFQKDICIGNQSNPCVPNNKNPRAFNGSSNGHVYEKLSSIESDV
Glutamate receptor ionotropic, NMDA 2B (Homo sapiens), Q13224 [N542A], sequence (Q13224 whole entry N542A): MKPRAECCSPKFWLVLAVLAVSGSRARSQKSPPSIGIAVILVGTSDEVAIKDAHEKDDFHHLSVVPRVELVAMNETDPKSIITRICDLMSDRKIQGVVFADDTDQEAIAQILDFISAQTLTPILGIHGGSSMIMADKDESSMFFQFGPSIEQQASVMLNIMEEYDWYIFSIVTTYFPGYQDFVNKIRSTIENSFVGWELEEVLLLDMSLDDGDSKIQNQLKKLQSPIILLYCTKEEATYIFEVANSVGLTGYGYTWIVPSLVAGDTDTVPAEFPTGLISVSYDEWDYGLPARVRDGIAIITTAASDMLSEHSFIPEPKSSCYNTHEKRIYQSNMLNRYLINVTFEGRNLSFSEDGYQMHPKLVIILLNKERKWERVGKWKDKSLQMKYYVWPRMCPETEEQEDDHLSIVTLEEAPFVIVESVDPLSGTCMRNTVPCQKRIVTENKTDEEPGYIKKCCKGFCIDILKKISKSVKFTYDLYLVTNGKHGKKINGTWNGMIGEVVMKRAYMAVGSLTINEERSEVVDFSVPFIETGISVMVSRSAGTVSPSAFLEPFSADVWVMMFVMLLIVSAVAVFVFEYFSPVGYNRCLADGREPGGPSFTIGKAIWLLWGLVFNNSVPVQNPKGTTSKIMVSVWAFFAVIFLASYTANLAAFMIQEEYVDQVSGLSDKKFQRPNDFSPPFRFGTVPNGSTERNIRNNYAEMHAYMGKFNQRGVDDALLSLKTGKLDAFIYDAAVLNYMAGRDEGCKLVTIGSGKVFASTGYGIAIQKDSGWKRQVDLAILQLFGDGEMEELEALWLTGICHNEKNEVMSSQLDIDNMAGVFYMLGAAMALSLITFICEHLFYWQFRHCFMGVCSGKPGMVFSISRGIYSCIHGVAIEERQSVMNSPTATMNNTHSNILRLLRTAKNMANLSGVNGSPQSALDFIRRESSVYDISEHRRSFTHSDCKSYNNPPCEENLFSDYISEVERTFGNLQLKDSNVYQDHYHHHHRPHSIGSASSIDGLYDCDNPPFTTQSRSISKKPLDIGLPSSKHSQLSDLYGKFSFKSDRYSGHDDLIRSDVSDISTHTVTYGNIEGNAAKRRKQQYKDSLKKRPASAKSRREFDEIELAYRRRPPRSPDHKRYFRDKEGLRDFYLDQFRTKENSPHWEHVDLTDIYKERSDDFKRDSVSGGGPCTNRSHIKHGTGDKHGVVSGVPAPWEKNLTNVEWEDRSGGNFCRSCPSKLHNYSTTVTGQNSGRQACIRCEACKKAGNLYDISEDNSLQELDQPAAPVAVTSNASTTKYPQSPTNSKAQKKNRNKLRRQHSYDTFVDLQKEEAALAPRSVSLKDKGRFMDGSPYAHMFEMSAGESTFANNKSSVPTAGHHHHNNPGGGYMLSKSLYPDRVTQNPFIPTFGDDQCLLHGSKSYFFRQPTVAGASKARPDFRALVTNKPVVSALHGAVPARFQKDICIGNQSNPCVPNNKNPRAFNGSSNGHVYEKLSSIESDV
Glutamate receptor ionotropic, NMDA 2B (Homo sapiens), Q13224 [V640A], sequence (Q13224 whole entry V640A): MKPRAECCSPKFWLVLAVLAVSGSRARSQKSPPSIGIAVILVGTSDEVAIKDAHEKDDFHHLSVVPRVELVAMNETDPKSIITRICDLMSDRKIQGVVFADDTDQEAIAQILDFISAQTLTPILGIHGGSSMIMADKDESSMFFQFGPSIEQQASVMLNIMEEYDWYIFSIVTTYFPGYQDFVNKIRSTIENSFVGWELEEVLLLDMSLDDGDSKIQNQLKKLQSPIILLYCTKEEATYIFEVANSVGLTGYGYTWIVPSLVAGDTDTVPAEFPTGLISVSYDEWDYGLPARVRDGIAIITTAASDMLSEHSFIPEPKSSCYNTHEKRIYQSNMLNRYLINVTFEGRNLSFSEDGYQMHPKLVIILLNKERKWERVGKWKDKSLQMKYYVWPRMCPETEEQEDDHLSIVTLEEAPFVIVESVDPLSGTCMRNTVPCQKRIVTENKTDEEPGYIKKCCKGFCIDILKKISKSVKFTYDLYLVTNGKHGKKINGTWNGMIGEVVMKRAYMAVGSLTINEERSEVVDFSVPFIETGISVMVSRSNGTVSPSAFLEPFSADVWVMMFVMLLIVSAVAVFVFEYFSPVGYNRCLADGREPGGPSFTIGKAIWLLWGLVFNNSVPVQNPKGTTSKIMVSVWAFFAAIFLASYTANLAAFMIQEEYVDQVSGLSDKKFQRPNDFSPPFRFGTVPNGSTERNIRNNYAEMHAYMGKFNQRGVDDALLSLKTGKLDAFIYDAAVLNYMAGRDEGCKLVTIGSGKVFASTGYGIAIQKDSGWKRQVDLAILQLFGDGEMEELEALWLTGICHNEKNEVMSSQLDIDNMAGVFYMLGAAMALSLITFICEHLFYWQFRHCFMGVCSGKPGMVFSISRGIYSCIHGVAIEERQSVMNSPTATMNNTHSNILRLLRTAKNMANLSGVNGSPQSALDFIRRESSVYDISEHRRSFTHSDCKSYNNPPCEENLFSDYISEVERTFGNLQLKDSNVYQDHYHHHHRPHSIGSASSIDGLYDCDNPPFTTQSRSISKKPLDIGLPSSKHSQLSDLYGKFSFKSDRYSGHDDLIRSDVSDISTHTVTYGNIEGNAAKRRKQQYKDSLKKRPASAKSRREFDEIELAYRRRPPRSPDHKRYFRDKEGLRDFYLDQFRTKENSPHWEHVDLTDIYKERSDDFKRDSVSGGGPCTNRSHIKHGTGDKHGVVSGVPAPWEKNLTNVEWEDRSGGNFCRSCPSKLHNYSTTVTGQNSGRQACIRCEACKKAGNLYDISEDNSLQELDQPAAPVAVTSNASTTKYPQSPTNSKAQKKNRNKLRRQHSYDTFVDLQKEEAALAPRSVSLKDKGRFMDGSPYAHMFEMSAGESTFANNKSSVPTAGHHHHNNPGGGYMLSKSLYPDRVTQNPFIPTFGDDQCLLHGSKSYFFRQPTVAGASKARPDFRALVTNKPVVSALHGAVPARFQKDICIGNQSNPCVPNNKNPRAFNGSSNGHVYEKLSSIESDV

`NC(=O)OCC(COC(N)=O)c1ccccc1`: the Kapp in assay [1] amounted to 2.92 mM; in assay [2], 2.56 mM; in assay [6], 6.73 mM; in assay [9] it was 6.28 mM; in assay [13], 4.23 mM; in [18] it was 6.68 mM. Besides, the inhibition (as a rule, the change of the read-out against control, counted positive when it falls) in assay [3] came to 75%; in assay [4], 71%; in assay [8], 84%; in assay [10], 73%; in [11] it was 62%; in [19], 84%. In addition, the Ratio Ki(app) stood at 21 in assay [5]; 7.7 in [7]; 3.3 in assay [12]; 40 in [14]; 4.8 in assay [15]; 6.5 in assay [16]. The values for the Ratio Ki(app) in assay [17] and in assay [20] were 4.9 and 7.5, respectively.

(Values after ChEMBL document CHEMBL1144021, “Molecular determinants of the anticonvulsant felbamate binding site in the N-methyl-D-aspartate receptor” (J Med Chem, 2008).)
